What was measured:
[1] = GSH reaction rates (inherent GSH reactivity); type: in vitro ADME; settings: 1 μM compound, 5 mM GSH, 37° C.
How it was run: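 Compounds at 1 μM were incubated at 37° C with or without 5 mM GSH in 100 mM potassium phosphate pH 7.4 for 0-6 h. Samples were quenched with acetonitrile/N-ethylmaleimide and the remaining compound quantified by LC-MS/MS to derive T1/2.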

[2] = molecular target: KRAS G12D binding to BRAF (Homo sapiens (Human), UniProt P01116+P62937, G12D); experiment: KRAS-BRAF with CYPA (50 nM) interaction assay (TR-FRET), G12D; settings: GMPPNP loaded 6His-KRAS, GST-BRAF RBD
Sequence of KRAS G12D binding to BRAF (P01116-2 other isoform, or with tags, fused parts or gaps G12D): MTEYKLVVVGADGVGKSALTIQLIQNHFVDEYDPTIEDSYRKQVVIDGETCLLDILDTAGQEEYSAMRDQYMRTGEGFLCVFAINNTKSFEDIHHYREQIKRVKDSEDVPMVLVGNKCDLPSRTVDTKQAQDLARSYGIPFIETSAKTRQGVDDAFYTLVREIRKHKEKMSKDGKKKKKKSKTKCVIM
Sequence of KRAS G12D binding to BRAF (P62937 whole entry): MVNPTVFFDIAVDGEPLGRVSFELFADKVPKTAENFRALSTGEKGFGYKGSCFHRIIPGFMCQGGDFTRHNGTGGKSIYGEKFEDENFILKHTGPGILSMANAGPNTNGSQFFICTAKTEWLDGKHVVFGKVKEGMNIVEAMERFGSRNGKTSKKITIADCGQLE
How it was run: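 Buffer 25 mM HEPES pH 7.4, 100 mM NaCl, 5 mM MgCl2, 10 μM GMPPNP, 0.1% BSA; final 50 nM tagless CYPA, 6.25 nM GMPPNP-loaded 6His-KRAS mutant, 1 nM GST-BRAF RBD. Compounds 16-point 3-fold series from 10 μM, 3 h; anti-6His-XL665/anti-GST-Tb added, 1.5 h; 665/615 nm ratio decrease versus DMSO.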

[3] = molecular target: KRAS G12C-BRAF complex (Homo sapiens (Human), UniProt P01116+P62937, G12C); experiment: KRAS G12C-BRAF NanoBit assay; type: cell-based; settings: HEK293 cells, SmBit-KRAS G12C and BRAF RBD-LgBit, 3 hours incubation
Sequence of KRAS G12C-BRAF complex (P01116-2 other isoform, or with tags, fused parts or gaps G12C): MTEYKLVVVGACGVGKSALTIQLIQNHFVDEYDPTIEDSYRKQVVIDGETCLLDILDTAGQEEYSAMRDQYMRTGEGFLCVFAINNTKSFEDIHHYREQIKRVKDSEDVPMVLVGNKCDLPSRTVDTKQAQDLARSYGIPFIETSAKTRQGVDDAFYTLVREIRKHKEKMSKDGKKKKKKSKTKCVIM
Sequence of KRAS G12C-BRAF complex (P62937 whole entry): as the sequence (P62937 whole entry) above
Protocol: This assay is to measure the ability of tested compounds in disruption of the KRAS G12C-BRAF complex at the cellular level, we established the NanoBit cellular assay in mammalian HEK293 (ATCC) cells. HEK293 cells were grown and maintained using DMEM medium (Thermo Fisher Scientific) with 10% fetal bovine serum and 1% penicillin/streptomycin. Both KRAS G12C and BRAF RBD were cloned into the NanoBit vectors ([…] vectors system, Promega) with the orientations SmBit-KRAS G12C and BRAF RBD-LgBit, respectively, and co-transfected into HEK293 cells. Cells were then selected with 100 μg/mL Hygromycin B (10687010, Thermo Fisher) and Blasticidin (5 μg/mL) for 4 weeks to get the stable cell pool. On the day of the assay, 75 nL of compound solution was presented in a 384-well assay plate as a 16-point 3-fold dilution starting from a final concentration of 30 μM in DMSO. Then cells were seeded at 10,000 cells/25 μL/well in a 384-well plate. After 3 hours of incubation, 6 μL of volume of Nano-Glo® Live Cell Substrate (Promega) was added into each well. Monitor luminescence using ultra384 model in Envision at 20 minutes. Compounds that facilitate disruption of the KRAS G12C-BRAF RBD complex were identified as those eliciting a decrease of luminescence relative to DMSO control wells.

CO[C@@H](C)c1ncc(N2CCOCC2)cc1-c1c2c3cc(ccc3n1CC(F)(F)F)-c1csc(n1)C[C@H](NC(=O)[C@H](C(C)C)N(C)C(=O)[C@H]1CCN(C(=O)[C@H](F)Cl)C1)C(=O)N1CCC[C@H](N1)C(=O)OCC(C)(C)C2 (atropisomer, axis not shown; (M)) [Example 25, (3S)-1-[(2R)-2-chloro-2-fluoro-acetyl]-N-[(1S)-1-[[(7S,13S)-(20M)-20-[2-[(1S)-1-methoxyethyl]-5-morpholino-3-pyridyl]-17,17-dimethyl-8,14-dioxo-21-(2,2,2-trifluoroethyl)-15-oxa-4-thia-9,21,27,28-tetrazapentacyclo[17.5.2.12,5.19,13.022,26]octacosa-1(25),2,5(28),19,22(26),23-hexaen-7-yl]carbamoyl]-2-methyl-propyl]-N-methyl-pyrrolidine-3-carboxamide]
Remaining at 6 hr in GSH (%) ([1]; pH 7.4, 6 hr): 100% | T1/2(hour) in GSH ([1]; potassium phosphate buffer pH 7.4): stable (If % depletion after 6 hour incubation is less than 20%, compounds were reported as stable) | IC50 [2]: > 10 µM | IC50 [3]: 0.02 µM

— patent publication US20250163072A1, “MACROCYCLIC COMPOUNDS FOR THE TREATMENT OF CANCER” (Hoffmann-La Roche Inc., priority 2021, published 2025)
